The test system of this test is endogenous cellular STAT1 (phosphorylated at Tyr701) in NCI-H1373 cells. In words: Phospho-STAT1 (Tyr701) LANCE Ultra TR-FRET Detection Assay. The class given is cell-based. Conditions: Homo sapiens, phospho-STAT1 (Tyr701) induction, read-out: NH1373 pSTAT1 EC50. For orientation: In TR-FRET formats the signal depends on donor and acceptor labels being close together.

Each structure is given as a SMILES string. Read-outs that look alike come from different tables or passages of the source.

`O=c1[nH]ncc(N2CCCN2CCCn2ccc3cc(-c4ncc(C(F)(F)F)cn4)c(F)cc3c2=O)c1C(F)(F)F` [Example 154, 7-fluoro-2-[3-[2-[6-oxo-5-(trifluoromethyl)-1H-pyridazin-4-yl]pyrazolidin-1-yl]propyl]-6-[5-(trifluoromethyl)pyrimidin-2-yl]isoquinolin-1-one]: the EC50 (48 hours) was 115 nM.
Turning to `C[C@@H](CCCn1cnc2cc(-c3ncc(C(F)(F)F)c(NC4CC4)n3)c(F)cc2c1=O)Nc1cn[nH]c(=O)c1C(F)(F)F` [Example 116, 7-[4-(cyclopropylamino)-5-(trifluoromethyl)pyrimidin-2-yl]-6-fluoro-3-[(4S)-4-[[6-oxo-5-(trifluoromethyl)-1H-pyridazin-4-yl]amino]pentyl]quinazolin-4-one], the EC50 (NCI-H1373, 48 h) came out at 6.7 nM.
As for `O=c1[nH]ncc(N2CC3(CC3)C[C@H]2CCCn2ccc3cc(-c4ncc(C(F)(F)F)cn4)c(F)cc3c2=O)c1C(F)(F)F` [Example 142, 7-fluoro-2-[3-[(6R)-5-[6-oxo-5-(trifluoromethyl)-1H-pyridazin-4-yl]-5-azaspiro[2.4]heptan-6-yl]propyl]-6-[5-(trifluoromethyl)pyrimidin-2-yl]isoquinolin-1-one], the concentration giving a half-maximal response (EC50) (NCI-H1373, 48 h) worked out at 38.6 nM.
Still for that read-out and setting: as for `O=c1[nH]ncc(N[C@H]2CC[C@@H]2CCn2cnc3cc(-c4ncc(C(F)(F)F)cn4)c(F)cc3c2=O)c1C(F)(F)F` [Example 452, 6-fluoro-3-[2-[(1R,2S)-2-[[6-oxo-5-(trifluoromethyl)-1H-pyridazin-4-yl]amino]cyclobutyl]ethyl]-7-[5-(trifluoromethyl)pyrimidin-2-yl]quinazolin-4-one], the figure is 35.9 nM; as for `C[C@@H](CCCn1ccc2cc(-c3ccc(C(F)(F)F)c(N)n3)c(F)cc2c1=O)Nc1cn[nH]c(=O)c1C(F)(F)F` [Example 213], 11.5 nM.
For the compound `CC[C@@H](CCCn1ccc2cc(-c3ncc(C(F)F)c(N)n3)c(F)cc2c1=O)Nc1cn[nH]c(=O)c1C(F)(F)F` [Example 297, (S)-6-(4-amino-5-(difluoromethyl)pyrimidin-2-yl)-7-fluoro-2-(4-((6-oxo-5-(trifluoromethyl)-1,6-dihydropyridazin-4-yl)amino)hexyl)isoquinolin-1(2H)-one], the EC50 (NCI-H1373, 48 h) is 3.71 nM.
On the same count and under the same terms, as for `Cc1nnc([C@@H](CCCn2ccc3cc(-c4ncc(C(F)(F)F)cn4)c(F)c(F)c3c2=O)Nc2cn[nH]c(=O)c2C(F)(F)F)o1` [Example 474, 7,8-difluoro-2-[(4R)-4-(5-methyl-1,3,4-oxadiazol-2-yl)-4-[[6-oxo-5-(trifluoromethyl)-1H-pyridazin-4-yl]amino]butyl]-6-[5-(trifluoromethyl)pyrimidin-2-yl]isoquinolin-1-one], the figure is 14.8 nM; as for `O=c1[nH]ncc(N[C@H](CCCn2cnc3cc(-c4ncc(Cl)cn4)c(F)cc3c2=O)C2CC2)c1C(F)(F)F` [Example 470, 7-(5-chloropyrimidin-2-yl)-3-[(4R)-4-cyclopropyl-4-[[6-oxo-5-(trifluoromethyl)-1H-pyridazin-4-yl]amino]butyl]-6-fluoro-quinazolin-4-one], 39.3 nM; as for `O=c1[nH]ncc(N[C@H]2CCCC[C@H]2CCn2ccc3cc(-c4ncc(C(F)(F)F)cn4)c(F)cc3c2=O)c1C(F)(F)F` (racemic) [Example 436, (rac)-7-fluoro-2-(2-((1S,2S)-2-((6-oxo-5-(trifluoromethyl)-1,6-dihydropyridazin-4-yl)amino)cyclohexyl)ethyl)-6-(5-(trifluoromethyl)pyrimidin-2-yl)isoquinolin-1(2H)-one], 443 nM.
Regarding `Nc1nc(-c2cc3ccn(C[C@@H]4CCC[C@H](Nc5cn[nH]c(=O)c5C(F)(F)F)C4)c(=O)c3cc2F)cnc1C(F)F` [Example 264, 6-(6-amino-5-(difluoromethyl)pyrazin-2-yl)-7-fluoro-2-(((1R,3S)-3-((6-oxo-5-(trifluoromethyl)-1,6-dihydropyridazin-4-yl)amino)cyclohexyl)methyl)isoquinolin-1(2H)-one], the concentration for a half-maximal effect (EC50) (NCI-H1373, 48 h) amounted to 76.1 nM.
Regarding `C[C@@H](CCCn1ccc2cc(-c3ncc4c(n3)NCC4(C)C)c(F)cc2c1=O)Nc1cn[nH]c(=O)c1C(F)(F)F` [Example 112, 6-(5,5-dimethyl-6,7-dihydropyrrolo[2,3-d]pyrimidin-2-yl)-7-fluoro-2-[(4S)-4-[[6-oxo-5-(trifluoromethyl)-1H-pyridazin-4-yl]amino]pentyl]isoquinolin-1-one], for the setting “NCI-H1373, 48 h”, the EC50 was 2.07 nM.
The same measure, in the same setting: the same measure for `COc1cnc(-c2cc3ccn(C[C@@H]4CCC[C@H](Nc5cn[nH]c(=O)c5C(F)(F)F)C4)c(=O)c3c(F)c2F)nc1N` [Example 278, 6-(4-amino-5-methoxypyrimidin-2-yl)-7,8-difluoro-2-(((1R,3S)-3-((6-oxo-5-(trifluoromethyl)-1,6-dihydropyridazin-4-yl)amino)cyclohexyl)methyl)isoquinolin-1(2H)-one]: 4.38 nM; for `COc1cnc(-c2cc3ccn(C/C=C/[C@H](C)Nc4cn[nH]c(=O)c4C(F)(F)F)c(=O)c3cc2F)nc1N` [Example 134, (S,E)-6-(4-amino-5-methoxypyrimidin-2-yl)-7-fluoro-2-(4-((6-oxo-5-(trifluoromethyl)-1,6-dihydropyridazin-4-yl)amino)pent-2-en-1-yl)isoquinolin-1(2H)-one]: 5.19 nM.
For `O=c1[nH]ncc(N[C@H](CCCn2cnc3nc(-c4ccc(C(F)(F)F)cn4)ccc3c2=O)COC(F)F)c1C(F)(F)F` [Example 404, (R)-3-(5-(difluoromethoxy)-4-((6-oxo-5-(trifluoromethyl)-1,6-dihydropyridazin-4-yl)amino)pentyl)-7-(5-(trifluoromethyl)pyridin-2-yl)pyrido[2,3-d]pyrimidin-4(3H)-one], the EC50 (NCI-H1373, 48 h) is 1.57 nM.
As to `O=c1[nH]ncc(N[C@H]2CCC[C@@H](Cn3cc(Br)c4cc(-c5ncc(C(F)(F)F)cn5)c(F)cc4c3=O)C2)c1C(F)(F)F` [Example 459, 4-bromo-7-fluoro-2-(((1R,3S)-3-((6-oxo-5-(trifluoromethyl)-1,6-dihydropyridazin-4-yl)amino)cyclohexyl)methyl)-6-(5-(trifluoromethyl)pyrimidin-2-yl)isoquinolin-1(2H)-one], the EC50 (NCI-H1373, 48 h) was determined as 12.2 nM.
The same measure, in the same setting: the same measure for `C[C@@H](CCCn1ccc2cc(-c3nccc(C(F)F)n3)c(F)cc2c1=O)Nc1cn[nH]c(=O)c1C(F)(F)F` [Example 197, (S)-6-(4-(difluoromethyl)pyrimidin-2-yl)-7-fluoro-2-(4-((6-oxo-5-(trifluoromethyl)-1,6-dihydropyridazin-4-yl)amino)pentyl)isoquinolin-1(2H)-one]: 638 nM; for `C[C@@H](CCCn1ccc2cc(-c3nc(N)ccc3C#N)c(F)cc2c1=O)Nc1cn[nH]c(=O)c1C(F)(F)F` [Example 291, (S)-6-amino-2-(7-fluoro-1-oxo-2-(4-((6-oxo-5-(trifluoromethyl)-1,6-dihydropyridazin-4-yl)amino)pentyl)-1,2-dihydroisoquinolin-6-yl)nicotinonitrile]: 709 nM.
On the same count and under the same terms, the same measure for `C[C@@H](CCCn1cnc2cc(-c3ccc(Cl)c(N)n3)c(F)cc2c1=O)Nc1cn[nH]c(=O)c1C(F)(F)F` [Example 294, (S)-7-(6-amino-5-chloropyridin-2-yl)-6-fluoro-3-(4-((6-oxo-5-(trifluoromethyl)-1,6-dihydropyridazin-4-yl)amino)pentyl)quinazolin-4(3H)-one]: 28.8 nM.

What is called EC50 is the midpoint of the concentration-response curve.
